Measurements: patent US20240114940A1, “SACCHARIDE COMPOSITIONS HAVING SUCROSE-LIKE CHARACTERISTICS AND RELATED METHODS” (priority 2021, published 2024)

Assays:
[1] = Breakdown products by GCMS after Maillard reaction in the presence of Leucine; assay type: physicochemical; settings: 160° C.
Method: (§1) Controls were prepared addition of 1 mL of pH 7 buffer to the amino acids. The samples were rapidly heated to 160° C. and held at this temperature for 10 min. Samples were rapidly cooled afterwards, and absorbance at 500 nm was measured for each reaction mixture. Volatiles were analysed using gas chromatography mass spectrometry (GCMS) analysis. An Agilent Technologies 5975B Inert XL MSD gas chromatography, single quadruple mass spectrometer was used for analysis of volatiles. Samples were added to separate GCMS headspace vials and weighed. 0.03 g of 0.01% 3-heptanone in water was added and the vial was sealed for GCMS solid phase micro extraction (SPME) analysis. Samples were analysed in a randomized order. Samples were incubated and agitated at 250 RPM, at 60° C. for 15 min prior to SPME analysis of volatiles. The SPME fibre (50/30 DVB/CAR/PDMS, 23 Ga) extracted for 10 min, then thermally desorbed at 250° C. for 5 min. A 30 m×0.25 mm×0.25 μm HP-5MS column was used (Phenomenex, UK). Oven temperature settings: 31° C.-5 min, 5° C./min to 150° C., 30° C./min to 240° C. Inlet settings: 250° C., pressure 10.4 psi, flow 11.2 mL/min, split ratio 7:1. MS operated in full scan mode from 40 to 400 m/z with a scan time of 0.2s. The peak area of the aroma compounds was compared to the peak of the internal standard 3-heptanone and corrected for the weight of the sample.
(§2) The concentration of the different classes of Maillard reaction breakdown products is presented in Tables 9B-E. The same data as Tables 9B-E is also presented in FIG. 27. Concentrations are in parts per billion of the difference non-enzymatic breakdown products for the different compositions at 160° C. analysed by GCMS.

[2] = Breakdown products by GCMS after Maillard reaction in the presence of Tryptophan; assay type: physicochemical; settings: with Tryptophan, pH 7, 160° C., 10 min
Method: as §1, §2

[3] = Carbonyls/ketones, Maillard reaction in the presence of Leucine, GCMS
[4] = Furans, Maillard reaction in the presence of Leucine, GCMS
[5] = Pyrazines, Maillard reaction in the presence of Leucine, GCMS

For `OC[C@H]1O[C@@](CO)(O[C@H]2O[C@H](CO)[C@@H](O)[C@H](O)[C@H]2O)[C@@H](O)[C@@H]1O` [Sucrose], which 2-Butanone concentration [1, 3] is on record?
The 2-Butanone concentration was 9.73 ppb.

What about the “2-Propanone, 1-hydroxy- concentration” value [1, 3] of the same molecule?
The value was 45.73 ppb.

What about the “Diacetyl (2,3-Butanedione) concentration” value [1, 3] of the same molecule?
Its value is 41.79 ppb.

And the “Furan, 2-methyl- concentration” value [1, 4]?
The value was 0.42 ppb.

And the Furfural concentration [1, 4]?
The Furfural concentration was 0.16 ppb.

What about the “Pyrazine, 2,5-diethyl- concentration” value [1, 5] of the same molecule?
The value was 24.28 ppb.

What about the “Pyrazine, 2,5-dimethyl- concentration” value [1, 5] of the same molecule?
Its value is 2111.75 ppb.

And the “Pyrazine, 2-ethyl-5-methyl- concentration” value [1, 5]?
The value was 554.43 ppb.

And the “Pyrazine, ethyl- concentration” value [1, 5]?
Its value is 8.8 ppb.

And the “Pyrazine, methyl- concentration” value [1, 5]?
The value was 20.49 ppb.

What about the “Isovaleraldehyde (Butanal, 3-methyl-) concentration” value ([1]; Strecker aldehydes, Maillard reaction in the presence of Leucine, GCMS) of the same molecule?
Its value is 3412.25 ppb.

And the Isovaleraldehyde concentration ([1]; with leucine)?
Its Isovaleraldehyde concentration is 3400 ppb.

And the “Concentration of 2-Butanone” value [2]?
The value was 3.16 ppb.

What about the “Concentration of 2-Propanone, 1-hydroxy-” value [2] of the same molecule?
Its value is 20.48 ppb.

And the “Concentration of Diacetyl (2,3-Butanedione)” value [2]?
Its value is 6.99 ppb.

And the “Concentration of Furan, 2-methyl-” value [2]?
The value was 0.25 ppb.

And the “Concentration of Furan, 2-pentyl-” value [2]?
The value was 0.03 ppb.

And the “Concentration of Furfural” value [2]?
Its value is 0.03 ppb.

And the “Concentration of Indole” value [2]?
Its value is 20.81 ppb.

And the “Concentration of Pyrazine, 2,5-diethyl-” value [2]?
Its value is 5.74 ppb.

What about the “Concentration of Pyrazine, 2,5-dimethyl-” value [2] of the same molecule?
Its value is 778.85 ppb.

And the “Concentration of Pyrazine, 2-ethyl-5-methyl-” value [2]?
Its value is 201.9 ppb.

What about the “Concentration of Pyrazine, ethyl-” value [2] of the same molecule?
Its value is 0.19 ppb.

And the “Concentration of Pyrazine, methyl-” value [2]?
Its value is 0.56 ppb.
